Data published in ChEMBL document CHEMBL1151215, “Isotsaokoin, an antifungal agent from Amomum tsao-ko” (2004).
The source made the active and inactive calls. The calls are words filed in the database; no cut-off is given here.

Experiments:
[1] = test system: Trichophyton mentagrophytes; assay: Antifungal activity against Trichophyton mentagrophytes KCTC 6085 at 60 ug/disk after 4 days by paper-disk agar diffusion assay; type: functional, organism-based
[2] = test system: Trichophyton mentagrophytes; assay: Antifungal activity against Trichophyton mentagrophytes KCTC 6085 at 20 ug/disk after 4 days by paper-disk agar diffusion assay; type: functional; settings: KCTC 6085, 96 h, read-out: IZ
[3] = test system: Trichophyton mentagrophytes; assay: Antifungal activity against Trichophyton mentagrophytes KCTC 6085 at 40 ug/disk after 4 days by paper-disk agar diffusion assay; type: functional; settings: KCTC 6085, 96 h, read-out: IZ

SMILES: OCC1=CC[C@@H](O)[C@H]2CCC[C@@H]12
- Activity [1]: inactive

SMILES: O=CC1=CC[C@@H](O)[C@@H]2CCC[C@H]12 (relative stereo) [ISOTSAOKOIN]
- zone of inhibition at 20 µg/disc [2]: 1.5 mm
- zone of inhibition at 40 µg/disc [3]: 2 mm

SMILES: C[C@@H]1[C@H](O)[C@@H](C)/C=C/C=C/C=C/C=C/C=C/C=C/C=C/[C@H](O[C@@H]2O[C@H](C)[C@@H](O)[C@H](N)[C@@H]2O)C[C@@H]2O[C@](O)(C[C@@H](O)C[C@@H](O)[C@H](O)CC[C@@H](O)C[C@@H](O)CC(=O)O[C@H]1C)C[C@H](O)[C@H]2C(=O)O [AMPHOTERICIN B]
- zone of inhibition at 20 µg/disc [2]: 2.5 mm
- zone of inhibition at 40 µg/disc [3]: 3 mm
